This is an account of results in patent US20120065231A1, “THIOPHENE DERIVATIVE” (SUMITOMO CHEMICAL COMPANY LTD., priority 2009, published 2012).

Each structure is given as a SMILES string.

In one data set the target is T1, androgen receptor (Homo sapiens, UniProt P10275, DEL75-80/DUP470-473).
T1 construct: expressed in transfected cells; host or cells: human-derived CHP212 cells, stably transformed with pGL3-TATA-3xARE and pRC/RSV-hAR Kozak
T1 sequence (P10275 with tags, fused parts or gaps DEL75-80/DUP470-473): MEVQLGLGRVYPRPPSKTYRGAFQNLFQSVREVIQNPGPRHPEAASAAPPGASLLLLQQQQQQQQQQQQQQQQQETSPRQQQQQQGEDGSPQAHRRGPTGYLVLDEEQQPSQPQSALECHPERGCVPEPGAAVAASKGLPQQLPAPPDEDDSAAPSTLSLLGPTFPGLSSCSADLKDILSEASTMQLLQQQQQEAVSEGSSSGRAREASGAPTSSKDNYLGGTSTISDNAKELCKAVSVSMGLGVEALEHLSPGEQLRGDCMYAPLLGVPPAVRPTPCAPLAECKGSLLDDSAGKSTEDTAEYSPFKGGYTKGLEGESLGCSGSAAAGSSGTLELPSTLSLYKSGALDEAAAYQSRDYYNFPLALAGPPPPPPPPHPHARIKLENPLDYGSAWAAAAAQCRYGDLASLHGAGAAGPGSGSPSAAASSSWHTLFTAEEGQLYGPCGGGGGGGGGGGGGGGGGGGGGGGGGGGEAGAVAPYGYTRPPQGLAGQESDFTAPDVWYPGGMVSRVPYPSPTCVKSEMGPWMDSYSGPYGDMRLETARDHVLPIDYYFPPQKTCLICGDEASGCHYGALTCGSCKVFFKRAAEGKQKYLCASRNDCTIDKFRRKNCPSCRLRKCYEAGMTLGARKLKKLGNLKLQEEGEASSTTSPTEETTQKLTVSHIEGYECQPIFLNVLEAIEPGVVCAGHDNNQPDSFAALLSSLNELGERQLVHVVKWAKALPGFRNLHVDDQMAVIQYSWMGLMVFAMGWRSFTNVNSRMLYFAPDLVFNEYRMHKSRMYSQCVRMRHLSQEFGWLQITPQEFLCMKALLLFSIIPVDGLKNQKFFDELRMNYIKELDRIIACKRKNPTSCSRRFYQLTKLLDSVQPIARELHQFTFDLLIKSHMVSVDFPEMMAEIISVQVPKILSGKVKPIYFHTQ
Kind of data set: Androgen receptor agonist activity by reporter gene assay method. Format: cell-based.
Conditions: not given
The method, then: After shaking for 10 minutes, the luciferase activity was measured by EnVision 2103 Multilabel Reader (PerkinElmer Co., Ltd.).
`CCCN(CC1CC1)c1cc(C(F)(F)F)c(C#N)s1` [Example 5, 5-[(cyclopropylmethyl)(propyl)amino]-3-(trifluoromethyl)thiophene-2-carbonitrile] returned an EC50 of 0.0119 µM.

In turn, `CCCN(CC1CC1)c1cc(C#N)c(C(F)(F)F)s1` [Example 7, 5-[(cyclopropylmethyl)(propyl)amino]-2-(trifluoromethyl)thiophene-3-carbonitrile] gave a concentration giving a half-maximal response (EC50) of 0.0993 µM.

With `CCCN(CC(F)(F)F)c1cc(Br)c(C#N)s1` [Example 23, 3-bromo-5-[(propyl)(2,2,2-trifluoroethyl)amino]thiophene-2-carbonitrile], the EC50 was 0.0054 µM.

For the compound `N#Cc1sc(N2CCCCC2C(O)C(F)(F)F)cc1C(F)(F)F` (stereo not drawn) [Example 43, 5-[2-(2,2,2-trifluoro-1-hydroxyethyl)piperidin-1-yl]-3-trifluoromethyl-thiophene-2-carbonitrile], the half-maximal effective concentration (EC50) is > 10 µM.

Turning to `CCCN(CC(F)(F)F)c1cc(C(F)(F)F)c(C#N)s1` [Example 45, 5-[(propyl)(2,2,2-trifluoroethyl)amino]-3-trifluoromethylthiophene-2-carbonitrile], a half-maximal effect (EC50) was put at 0.0031 µM.

Turning to `CCCN(CC(F)(F)F)c1cc(C)c(C#N)s1` [Example 46, 5-[(propyl)(2,2,2-trifluoroethyl)amino]-3-methylthiophene-2-carbonitrile], the 50% effective concentration (EC50) was found to be 0.0252 µM.

Staying with this data set, now noted: agonist activity; transformed human-derived CHP212 cells with pGL3-TATA-3×ARE luciferase reporter and pRC/RSV-hAR Kozak; 24 hours; read-out: EC50.
For `N#Cc1sc(N2CCCCC2C(O)C(F)(F)F)cc1Br` (racemic) [Example 40, 3-bromo-5-[2-(2,2,2-trifluoro-1-hydroxyethyl)piperidin-1-yl]thiophene-2-carbonitrile], the EC50 was 0.014 µM.

As for `CCCN(CC1CC1)c1cc(Br)c(C=O)s1` [Example 1, 3-bromo-5-[(cyclopropylmethyl)(propyl)amino]thiophene-2-carbaldehyde], the 50% effective concentration (EC50) was > 10 µM.

`CCCN(CC1CC1)c1cc(Br)c(C#N)s1` [Example 2, 3-bromo-5-[(cyclopropylmethyl)(propyl)amino]thiophene-2-carbonitrile]: the EC50 amounted to 0.0106 µM.

Consider `N#Cc1sc(N2CCCC2)cc1Br` [Example 8, 3-bromo-5-(pyrrolidin-1-yl)thiophene-2-carbonitrile], for which the EC50 turned out to be 1.4 µM.

For `CC1CCCCN1c1cc(Br)c(C#N)s1` (stereo not drawn) [Example 9, 3-bromo-5-(2-methylpiperidin-1-yl)thiophene-2-carbonitrile], the EC50 was determined as 0.45 µM.

For `CC1CCN(c2cc(Br)c(C#N)s2)CC1` [Example 12, 3-bromo-5-(4-methylpiperidin-1-yl)thiophene-2-carbonitrile], the EC50 worked out at 1.5 µM.

For the compound `CC(C)CN(C)c1cc(Br)c(C#N)s1` [Example 13, 3-bromo-5-[(methyl)(2-methylpropyl)amino]thiophene-2-carbonitrile], the concentration giving a half-maximal response (EC50) was found to be 1.2 µM.

On to `CCCN(CCC)c1cc(Br)c(C#N)s1` [Example 14, 3-bromo-5-(dipropylamino)thiophene-2-carbonitrile], for which the EC50 turned out to be 0.0433 µM.

In the case of `C=CCN(CC=C)c1cc(Br)c(C#N)s1` [Example 15, 3-bromo-5-(diallylamino)thiophene-2-carbonitrile], the 50% effective concentration (EC50) stood at 0.0131 µM.

With `COCCN(CCOC)c1cc(Br)c(C#N)s1` [Example 16, 5-[bis(2-methoxyethyl)amino]-3-bromothiophene-2-carbonitrile], the EC50 was 1.6 µM.

For `CCC1CCCCN1c1cc(Br)c(C#N)s1` (stereo not drawn) [Example 17, 3-bromo-5-(2-ethylpiperidin-1-yl)thiophene-2-carbonitrile], the EC50 was 0.0049 µM.

With `CCCC1CCCCN1c1cc(Br)c(C#N)s1` (stereo not drawn) [Example 18, 3-bromo-5-(2-propylpiperidin-1-yl)thiophene-2-carbonitrile], the concentration giving a half-maximal response (EC50) turned out to be 0.0362 µM.

In the case of `CCCN(CC(=O)OCC)c1cc(Br)c(C#N)s1` [Example 24, N-(4-bromo-5-cyanothiophen-2-yl)-N-propylglycine ethyl ester], the EC50 was > 10 µM.

As for `CCCN(CC(=O)NC)c1cc(Br)c(C#N)s1` [Example 25, N2-(4-bromo-5-cyanothiophen-2-yl)-N-methyl-N2-propylglycinamide], the EC50 turned out to be 1.5 µM.

`CCCN(CC(=O)O)c1cc(Br)c(C#N)s1` [Example 26, N-(4-bromo-5-cyanothiophen-2-yl)-N-propylglycine]: the EC50 was > 10 µM.

With `CCCN(CC#N)c1cc(Br)c(C#N)s1` [Example 28, 3-bromo-5-[(cyanomethyl)(propyl)amino]thiophene-2-carbonitrile], the EC50 turned out to be 0.58 µM.

Turning to `CCCN(CC1OCCO1)c1cc(Br)c(C#N)s1` [Example 31, 3-bromo-5-[(1,3-dioxolan-2-ylmethyl)(propyl)amino]thiophene-2-carbonitrile], the 50% effective concentration (EC50) came to 0.75 µM.

For `CCCN(CC=O)c1cc(Br)c(C#N)s1` [Example 32, 3-bromo-5-[(2-oxoethyl)(propyl)amino]thiophene-2-carbonitrile], the EC50 was > 10 µM.

Consider `CCC1CCCC(=O)N1c1cc(Br)c(C#N)s1` (stereo not drawn) [Example 35, 3-bromo-5-(2-ethyl-6-oxopiperidin-1-yl)thiophene-2-carbonitrile], for which the EC50 was > 10 µM.

For the compound `CC(O)C1CCCCN1c1cc(Br)c(C#N)s1` (stereo not drawn) [Example 41, 3-bromo-5-[2-(1-hydroxyethyl)piperidin-1-yl]thiophene-2-carbonitrile], the 50% effective concentration (EC50) is 0.56 µM.

For `N#Cc1sc(N2CCCCC2C#N)cc1Br` (stereo not drawn) [Example 47, 5-(2-cyanopiperidin-1-yl)-3-bromo-thiophene-2-carbonitrile], the EC50 is 1.5 µM.

Tested on in the next data set: not listed separately
Kind of data set: Test of S9 metabolism stability in rat. The format is in vitro ADME. Particulars: rat S9, NADPH, 37° C., reaction time 30 min. As to the method: (§1) For the inventive compound, was carried out test of a S9 metabolism stability in human, rat and mouse.
(§2) Using MINISORP(75×12) NUNC-IMMUNO tube, a 0.5 μM I.S.-added reaction stopping solution (500 μL) and a 10 mmol/L NADPH solution (50 μL) were mixed. Subsequently, a S9 mixture (445 μL) and pure water (5 μL) were added to prepare an I.S.-added blank sample. Likewise, a S9 mixture (445 μL) and a 100 μM test substance solution (5 μL) were added, preparing an calibration curve sample.
(§3) A S9 mixture (1068 μL) was dispensed into MINISORP (75×12) NUNC-IMMUNO tube. On ice water, a 100 μM test substance solution (12 μL) was added, and pre-incubation was carried out at 37° C. for 5 minutes. An aliquot (450 μL) of this was fractionated, and a […] I.S.-added reaction stopping solution (500 μL) and a 10 mmol/L NADPH solution (50 μL) were added, to obtain an unreacted sample (reaction time; 0 min). To the residue after fractionation, a 10 mmol/L NADPH solution (70 μL) was added, and incubation was carried out at 37° C. for 30 minutes, and an aliquot (500 μL) was fractionated, then, a 0.5 μM I.S.-added reaction stopping solution (500 μL) was added, preparing a reacted sample (reaction time; 30 min). […]
In the case of `N#Cc1sc(N2CCCCC2C(O)C(F)(F)F)cc1Br` (stereo not drawn), the “Residual ratio (%) rat” value was found to be 40.1%.

Tested on in the next data set: not listed separately
Kind of data set: Test of S9 metabolism stability in human. Format: in vitro ADME. Particulars: human S9, NADPH, 37° C., reaction time 30 min. As to the method:
as §1, §2, §3
Turning to `N#Cc1sc(N2CCCCC2C(O)C(F)(F)F)cc1Br` (stereo not drawn), the “Residual ratio (%) human” value was found to be 73.4%.

Tested on in a further data set: not listed separately
Kind of data set: Test of S9 metabolism stability in mouse. Format: in vitro ADME. Particulars: mouse S9, NADPH, 37° C., reaction time 30 min. The method, then:
as §1, §2, §3
As to `N#Cc1sc(N2CCCCC2C(O)C(F)(F)F)cc1Br` (stereo not drawn), the “Residual ratio (%) mouse” value was determined as 39.1%.
